Values after ≈ are worked out from the molar mass of the structure shown.
Tests used:
Format in all cases: functional
[1] = tested on: Mycobacterium tuberculosis; assay: Antibacterial activity against Mycobacterium tuberculosis Beijing by modified conventional agar proportion method
[2] = tested on: Mycobacterium tuberculosis; assay: Antibacterial activity against Mycobacterium tuberculosis H37Rv by modified conventional agar proportion method
[3] = tested on: Mycobacterium tuberculosis; assay: Antibacterial activity against HYG cassette-positive Mycobacterium tuberculosis Rv8100 by modified conventional agar proportion method
[4] = tested on: Mycobacterium tuberculosis; assay: Antibacterial activity against HYG cassette-positive Mycobacterium tuberculosis Rv8101 by modified conventional agar proportion method
[5] = tested on: Mycobacterium tuberculosis; assay: Antibacterial activity against HYG cassette-positive Mycobacterium tuberculosis Rv4400 by modified conventional agar proportion method
[6] = tested on: Mycobacterium tuberculosis; assay: Antibacterial activity against HYG cassette-positive Mycobacterium tuberculosis Rv4401 by modified conventional agar proportion method
[7] = tested on: Mycobacterium tuberculosis; assay: Antibacterial activity against HYG cassette-positive Mycobacterium tuberculosis B5200 by modified conventional agar proportion method
[8] = tested on: Mycobacterium tuberculosis; assay: Antibacterial activity against HYG cassette-positive Mycobacterium tuberculosis B5201 by modified conventional agar proportion method
[9] = tested on: Mycobacterium tuberculosis; assay: Antibacterial activity against HYG cassette-positive Mycobacterium tuberculosis B5400 by modified conventional agar proportion method
[10] = tested on: Mycobacterium tuberculosis; assay: Antibacterial activity against HYG cassette-positive Mycobacterium tuberculosis B5401 by modified conventional agar proportion method
[11] = tested on: Mycobacterium tuberculosis; assay: Antibacterial activity against HYG cassette-negative Mycobacterium tuberculosis H37Rv by modified conventional agar proportion method
[12] = tested on: Mycobacterium tuberculosis; assay: Antibacterial activity against HYG cassette-positive Mycobacterium tuberculosis RvAS9 by modified conventional agar proportion method
[13] = tested on: Mycobacterium tuberculosis; assay: Antibacterial activity against HYG cassette-negative Mycobacterium tuberculosis Beijing by modified conventional agar proportion method
[14] = tested on: Mycobacterium tuberculosis; assay: Antibacterial activity against HYG cassette-positive Mycobacterium tuberculosis BAS10 by modified conventional agar proportion method

Structure (SMILES): CC[C@@H](CO)NCCN[C@@H](CC)CO [ETHAMBUTOL]
- MIC [1]: 5 µg/mL (≈ 24.5 µM)
- MIC [2]: 5 µg/mL (≈ 24.5 µM)
- MIC [3]: 5 µg/mL (≈ 24.5 µM)
- MIC [4]: 5 µg/mL (≈ 24.5 µM)
- MIC [5]: 10 µg/mL (≈ 48.9 µM)
- MIC [6]: 10 µg/mL (≈ 48.9 µM)
- MIC [7]: 5 µg/mL (≈ 24.5 µM)
- MIC [8]: 5 µg/mL (≈ 24.5 µM)
- MIC [9]: 5 µg/mL (≈ 24.5 µM)
- MIC [10]: 5 µg/mL (≈ 24.5 µM)
- MIC [11]: 5 µg/mL (≈ 24.5 µM)
- MIC [12]: 5 µg/mL (≈ 24.5 µM)
- MIC [13]: 5 µg/mL (≈ 24.5 µM)
- MIC [14]: 5 µg/mL (≈ 24.5 µM)

— ChEMBL document CHEMBL1629650 (2009)
